System: H9 cells, a human T-cell line
Experiment: Vitamin C uptake in H9 T-cells
Type: cell-based
Conditions: 50 μM
Description: At the times indicated in FIG. 13, cells were harvested and measured for vitamin C and protein content. The cellular vitamin C levels of the cells were measured.

- cellular vitamin C level (peak) (approximately two hours): 20 nmol/mg protein
- cellular vitamin C level (fifteen minutes): 6±1.4 nmol/mg protein
SMILES: O=C1O[C@H]([C@@H](O)CO)C(O)=C1O [nonliposomal vitamin C, ascorbic acid]
